Experiment [1] has as its system Pseudomonas aeruginosa ATCC 27853. The experiment in a line: MIC assay (planktonic growth inhibition, OD600). Format: cell-based, P. aeruginosa. The settings on record: 24 h at 37° C. Put shortly: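 Broth microdilution in MHB-II, two-fold series from 8 mM stock solution (Tween 80/DMSO co-diluted, 2.5% in top well). Inoculum from overnight TSA colonies adjusted to OD600 0.0008 (~10^6 CFU/mL); 24 h at 37° C., growth read as OD600; three independent experiments.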

Experiment [2] has as its system Staphylococcus epidermis ATCC 35984 biofilm. The experiment in a line: MBEC assay (biofilm eradication, CFU log reduction). Format: cell-based, S. epidermidis. The settings on record: 48 h grown biofilm, 20 h treatment, CFU log reduction vs untreated. Put shortly:
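Biofilms were grown 48 h static at 37 °C in TSB from inocula at OD600 0.2, then treated 20 h at 37 °C with 1, 0.5, 0.25 or 0.125 mM compound in saline (Tween 80 and DMSO each 0.63–0.08%), four replicates per condition. Resuspended biofilm was serially diluted and plated on TSA for 24 h; log CFU reduction versus untreated, with ≥1 counted as significant, in two independent experiments.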

For experiment [3], the system named is cows with a SCC of more as 250.000 cells/ml. In words: In vivo mastitis test: somatic cell count (SCC) in milk after a single oral tablet. Also noted: species or system cow. Particulars: single oral tablet (10 g), 60 days, FIG. 1. The procedure:
Experiments were performed to examine the effect of compounds on the cell count or somatic cell count (SCC) in milk.
Somatic cell counts (SCC) is related to the amount of pathogens that are in the quarter visible for the immune system. The cell count of each cow was measured with the milk production registration (MPR). This MPR is done periodically every 30-40 days at all farms. The Somatic Cell Count (SCC) is a main indicator of milk quality. The majority of somatic cells are leukocytes (white blood cells)—which become present in increasing numbers in milk usually as an immune response to a mastitis-causing pathogen—and a small number of epithelial cells, which are milk-producing cells shed from inside of the udder when an infection occurs.
The SCC data was extracted from milk production registrations (MPRs). MPRs are databases showing all details (e.g. SCC) of the produced milk per individual cow. MPRs of the selected farms were available periodically. SCC is quantified as the number of cells per ml of milk. In general terms: an individual cow with a value for SCC of 100,000 or less indicates an ‘uninfected’ cow and there were no significant production losses due to subclinical mastitis. A threshold SCC above 250,000 indicates infection and counts between 100,000 to 250,000 indicate a high risk of infection.
The experiments were performed on a farm with 90 cows. Examination was performed on cell count with the above described tablets during 60 days.
Cows with a SCC of more as 250.000 cells/ml before treatment were selected for administration of a single tablet.

In experiment [4] the test system is udder cleft wound. In words: In vivo udder cleft dermatitis test: wound assessment after spray treatment. The arrangement: species or system cow. The settings on record: for inflammation of the udder cleft wound after treatment: immediately after the treatment, later infection reduced and wound healed; for Conclusion (effect on udder cleft wound): over 60 days, all cows of the group.

Take `CSS(C)(=O)=O` [Di-methyl thiosulfonate, methyl methane thiosulfonate]: the “P. aeruginosa MIC50” value in experiment [1] (minimal concentration reducing final OD600 by 50%) stood at 250 µM. Moreover, in experiment [1] (minimal concentration reducing final OD600 by 90%), the “P. aeruginosa MIC90” value is 500 µM. Moreover, the “S. epidermidis MBEC mM with log reduction ≥1” value in experiment [2] is 2 mM. Further, in experiment [3], the “somatic cell count (SCC) of milk” value was “significantly decreased”. Also, in experiment [4], the “inflammation of the udder cleft wound after treatment” value is recorded as “fast inflammation reduction” and the “Conclusion (effect on udder cleft wound)” value is on record as “Positive effect”.
Take `CCCS[S+]([O-])CCC` (stereo not drawn) [Di-n-propyl thiosulfinate, S-propyl propane-1-sulfinothioate]: in experiment [1] (Pseudomonas aeruginosa, ATCC27853, minimal concentration reducing final OD600 by 50%, read-out: P. aeruginosa MIC50), the IC50 is 1 mM. Also, the IC90 in experiment [1] (Pseudomonas aeruginosa, ATCC27853, minimal concentration reducing final OD600 by 90%, read-out: P. aeruginosa MIC90) was 2 mM. In experiment [2] (read-out: S. epidermidis MBEC mM with log reduction ≥1), the minimal effective concentration was found to be 2 mM. Besides, the “somatic cell count (SCC) of milk” value in experiment [3] is listed as “significantly decreased”. Also, in experiment [4], the “inflammation of the udder cleft wound after treatment” value is “fast inflammation reduction” and the “Conclusion (effect on udder cleft wound)” value was “Positive effect”.

Source of the values: US20240374535A1, “COMPOSITIONS AND METHODS FOR TREATING BIOFILM DISORDERS AND INFECTIONS” (AHV International B.V., priority 2021, published 2024).
